PubChem BioAssay AID2060513 (Molecular Pharmacology Branch, DTP, NCI, 2025)

Tested on: 299254-011-R-J1-PDC complex spheroids viability
Test: Anticancer human tumor 299254-011-R-J1-PDC patient-derived melanoma cell line growth inhibition [GQUAD]
Conditions: for IC50: curve of first compound; for viability, T/C: stronger effect = lower value
Outline: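 Tumor cells were grown as complex spheroids with HUVEC endothelial cells and mesenchymal stem cells as stroma. G-quadruplex stabilizers were combined with targeted agents over half-log dilutions from near the clinical Cmax, or from 10 microM.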

[1] = second compound 0.0316 µM, first compound 0.0316 µM
[2] = second compound 0.0316 µM, first compound 0.316 µM
[3] = second compound 0.1 µM, first compound 0.0316 µM
[4] = second compound 0.1 µM, first compound 0.316 µM
[5] = second compound 0.316 µM, first compound 0.0316 µM
[6] = second compound 0.316 µM, first compound 0.316 µM
[7] = second compound 1 µM, first compound 0.0316 µM
[8] = second compound 1 µM, first compound 0.316 µM
[9] = second compound 3.16 µM, first compound 0.0316 µM
[10] = second compound 3.16 µM, first compound 0.316 µM
[11] = second compound 10 µM, first compound 0.0316 µM
[12] = second compound 10 µM, first compound 0.316 µM
[13] = second compound 0.0316 µM, first compound 0.1 µM
[14] = second compound 0.0316 µM, first compound 1 µM
[15] = second compound 0.0316 µM, first compound 3.16 µM
[16] = second compound 0.0316 µM, first compound 10 µM
[17] = second compound 0.1 µM, first compound 0.1 µM
[18] = second compound 0.1 µM, first compound 1 µM
[19] = second compound 0.1 µM, first compound 3.16 µM
[20] = second compound 0.1 µM, first compound 10 µM
[21] = second compound 0.316 µM, first compound 0.1 µM
[22] = second compound 0.316 µM, first compound 1 µM
[23] = second compound 0.316 µM, first compound 3.16 µM
[24] = second compound 0.316 µM, first compound 10 µM
[25] = second compound 1 µM, first compound 0.1 µM
[26] = second compound 1 µM, first compound 1 µM
[27] = second compound 1 µM, first compound 3.16 µM
[28] = second compound 1 µM, first compound 10 µM
[29] = second compound 3.16 µM, first compound 0.1 µM
[30] = second compound 3.16 µM, first compound 1 µM
[31] = second compound 3.16 µM, first compound 3.16 µM
[32] = second compound 3.16 µM, first compound 10 µM
[33] = second compound 10 µM, first compound 0.1 µM
[34] = second compound 10 µM, first compound 1 µM
[35] = second compound 10 µM, first compound 3.16 µM
[36] = second compound 10 µM, first compound 10 µM
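Note: spheroids exposed to the agents for seven days before readout.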
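Throughout, for viability, T/C: percent viability relative to DMSO vehicle control wells = 100%.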

## CCc1c2c(nc3ccc(O)cc13)-c1cc3c(c(=O)n1C2)COC(=O)[C@]3(O)CC + Cc1[nH]c2ccc(F)cc2c1-c1nc2c3cccnc3c3ncccc3c2[nH]1
Second compound 0.0316 µM
  IC50: > 316 nM
Second compound 0.1 µM
  IC50: > 316 nM
Second compound 0.316 µM
  IC50: > 316 nM
Second compound 1 µM
  IC50: > 316 nM
Second compound 3.16 µM
  IC50: > 316 nM
Second compound 10 µM
  IC50: > 316 nM
Second compound 0.0316 µM, first compound 0.000999 µM
  viability, T/C: 106%
Second compound 0.0316 µM, first compound 0.00316 µM
  viability, T/C: 88.8%
Second compound 0.0316 µM, first compound 0.00999 µM
  viability, T/C: 73.2%
[1]
  viability, T/C: 73.7%
Second compound 0.0316 µM, first compound 0.0999 µM
  viability, T/C: 79.6%
[2]
  viability, T/C: 66.1%
Second compound 0.1 µM, first compound 0.000999 µM
  viability, T/C: 108%
Second compound 0.1 µM, first compound 0.00316 µM
  viability, T/C: 117%
Second compound 0.1 µM, first compound 0.00999 µM
  viability, T/C: 85.4%
[3]
  viability, T/C: 90.2%
Second compound 0.1 µM, first compound 0.0999 µM
  viability, T/C: 79.6%
[4]
  viability, T/C: 64.8%
Second compound 0.316 µM, first compound 0.000999 µM
  viability, T/C: 91.1%
Second compound 0.316 µM, first compound 0.00316 µM
  viability, T/C: 117%
Second compound 0.316 µM, first compound 0.00999 µM
  viability, T/C: 69.2%
[5]
  viability, T/C: 84.2%
Second compound 0.316 µM, first compound 0.0999 µM
  viability, T/C: 88.2%
[6]
  viability, T/C: 70.2%
Second compound 1 µM, first compound 0.000999 µM
  viability, T/C: 105%
Second compound 1 µM, first compound 0.00316 µM
  viability, T/C: 92.7%
Second compound 1 µM, first compound 0.00999 µM
  viability, T/C: 94.2%
[7]
  viability, T/C: 77.5%
Second compound 1 µM, first compound 0.0999 µM
  viability, T/C: 84%
[8]
  viability, T/C: 68.6%
Second compound 3.16 µM, first compound 0.000999 µM
  viability, T/C: 102%
Second compound 3.16 µM, first compound 0.00316 µM
  viability, T/C: 114%
Second compound 3.16 µM, first compound 0.00999 µM
  viability, T/C: 75.7%
[9]
  viability, T/C: 80.7%
Second compound 3.16 µM, first compound 0.0999 µM
  viability, T/C: 79.9%
[10]
  viability, T/C: 72.2%
Second compound 10 µM, first compound 0.000999 µM
  viability, T/C: 96.1%
Second compound 10 µM, first compound 0.00316 µM
  viability, T/C: 94.4%
Second compound 10 µM, first compound 0.00999 µM
  viability, T/C: 80.7%
[11]
  viability, T/C: 76.8%
Second compound 10 µM, first compound 0.0999 µM
  viability, T/C: 60.1%
[12]
  viability, T/C: 58.8%

## O=C(NO)c1cnc(N2CCN(S(=O)(=O)c3ccc4ccccc4c3)CC2)nc1 + CN(C)c1ccc(Nc2c3ccc(NC(=O)CCN4CCCC4)cc3nc3cc(NC(=O)CCN4CCCC4)ccc23)cc1
Second compound 0.0316 µM
  IC50: 412 nM
Second compound 0.1 µM
  IC50: 447 nM
Second compound 0.316 µM
  IC50: 415 nM
Second compound 1 µM
  IC50: 519 nM
Second compound 3.16 µM
  IC50: 512 nM
Second compound 10 µM
  IC50: 448 nM
[1]
  viability, T/C: 111%
[13]
  viability, T/C: 90%
[2]
  viability, T/C: 65.2%
[14]
  viability, T/C: 3.37%
[15]
  viability, T/C: 0.26%
[16]
  viability, T/C: 0.29%
[3]
  viability, T/C: 103%
[17]
  viability, T/C: 91.5%
[4]
  viability, T/C: 69.2%
[18]
  viability, T/C: 5.67%
[19]
  viability, T/C: 0.22%
[20]
  viability, T/C: 0.27%
[5]
  viability, T/C: 109%
[21]
  viability, T/C: 92.7%
[6]
  viability, T/C: 65%
[22]
  viability, T/C: 3.85%
[23]
  viability, T/C: 0.2%
[24]
  viability, T/C: 0.27%
[7]
  viability, T/C: 112%
[25]
  viability, T/C: 93.2%
[8]
  viability, T/C: 85%
[26]
  viability, T/C: 3.59%
[27]
  viability, T/C: 0.21%
[28]
  viability, T/C: 0.25%
[9]
  viability, T/C: 100%
[29]
  viability, T/C: 90.1%
[10]
  viability, T/C: 82.3%
[30]
  viability, T/C: 5.14%
[31]
  viability, T/C: 0.2%
[32]
  viability, T/C: 0.24%
[11]
  viability, T/C: 115%
[33]
  viability, T/C: 85.8%
[12]
  viability, T/C: 71%
[34]
  viability, T/C: 3.61%
[35]
  viability, T/C: 0.22%
[36]
  viability, T/C: 0.26%

## CCCS(=O)(=O)Nc1ccc(F)c(C(=O)c2c[nH]c3ncc(-c4ccc(Cl)cc4)cc23)c1F + Cc1[nH]c2ccc(F)cc2c1-c1nc2c3cccnc3c3ncccc3c2[nH]1
Second compound 0.0316 µM
  IC50: 8450 nM
Second compound 0.1 µM
  IC50: 8510 nM
Second compound 0.316 µM
  IC50: 8050 nM
Second compound 1 µM
  IC50: 7260 nM
Second compound 3.16 µM
  IC50: 7740 nM
Second compound 10 µM
  IC50: 7380 nM
[1]
  viability, T/C: 91.6%
[13]
  viability, T/C: 109%
[2]
  viability, T/C: 109%
[14]
  viability, T/C: 88.3%
[15]
  viability, T/C: 76.8%
[16]
  viability, T/C: 45.4%
[3]
  viability, T/C: 98.6%
[17]
  viability, T/C: 110%
[4]
  viability, T/C: 100%
[18]
  viability, T/C: 82.7%
[19]
  viability, T/C: 105%
[20]
  viability, T/C: 41.9%
[5]
  viability, T/C: 86.6%
[21]
  viability, T/C: 123%
[6]
  viability, T/C: 110%
[22]
  viability, T/C: 108%
[23]
  viability, T/C: 90.7%
[24]
  viability, T/C: 40.4%
[7]
  viability, T/C: 94.8%
[25]
  viability, T/C: 103%
[8]
  viability, T/C: 84.1%
[26]
  viability, T/C: 107%
[27]
  viability, T/C: 79.7%
[28]
  viability, T/C: 38.6%
[9]
  viability, T/C: 91.4%
[29]
  viability, T/C: 109%
[10]
  viability, T/C: 92.3%
[30]
  viability, T/C: 115%
[31]
  viability, T/C: 82.6%
[32]
  viability, T/C: 40.7%
[11]
  viability, T/C: 81.3%
[33]
  viability, T/C: 108%
[12]
  viability, T/C: 101%
[34]
  viability, T/C: 105%
[35]
  viability, T/C: 88.8%
[36]
  viability, T/C: 35.8%
